Drawing on patent US9630978B2, “Polycyclic-carbamoylpyridone compounds and their pharmaceutical use” (Gilead Sciences, Inc., priority 2015, dated 2017), this text covers EC50 and CC50 for 20 molecules.

SMILES strings stand for the structures. pEC50: −log10 of the molar value. Where two headings read alike, the source gives them in different places.

Holding throughout (type): cell-based
One data set deals with HIV-IIIb. In words: Antiviral assay in MT4 cells. As to conditions: MT4 cells infected with HIV-IIIb (0.004 m.o.i.), 5 days incubation, CellTiter-Glo, average over assays. The procedure:
(§1) For the antiviral assay utilizing MT4 cells, 0.4 μL of 189X test concentration of 3-fold serially diluted compound in DMSO was added to 40 μl of cell growth medium (RPMI 1640, 10% FBS, 1% penicillin/streptomycin, 1% L-Glutamine, 1% HEPES) in each well of 384-well assay plates (10 concentrations) in quadruplicate.
(§2) 1 mL aliquots of 2×10^6 MT4 cells are pre-infected for 1 and 3 hours respectively at 37° C. with 25 μL (MT4) or of either cell growth medium (mock-infected) or a fresh 1:250 dilution of an HIV-IIIb concentrated ABI stock (0.004 m.o.i. for MT4 cells). Infected and uninfected cells are diluted in cell growth medium and 35 μL of 2000 (for MT4) cells is added to each well of the assay plates.
(§3) Assay plates were then incubated in a 37° C. incubator. After 5 days of incubation, 25 μL of 2× concentrated CellTiter-Glo™ Reagent (catalog # G7573, Promega Biosciences, Inc., Madison, Wis.) was added to each well of the assay plate. Cell lysis was carried out by incubating at room temperature for 2-3 minutes, and then chemiluminescence was read using the Envision reader (PerkinElmer).
(In ATP-based viability assays light output follows the ATP content of the culture.)

Data set [1] can be described thus: Cytotoxicity (CC50) in MT4 cells within the antiviral assay. The conditions noted are these: human, MT4 cells (mock-infected); MT4 cells, 5 days incubation, CellTiter-Glo; average over assays. The procedure:
as §1, §2, §3

A further data set has as its system MT4 cells. The data set is described as above. On the procedure: as §1, §2, §3
[2] abbreviates: Human immunodeficiency virus 1, IIIB, MT4, 120 h.
The mark [3] stands for this setting: MT4 cells, 5 days incubation, CellTiter-Glo, average over assays, read-out: CC50.

A word on the pEC50: it is −log10 of the EC50, conventionally taken in molar units. As usually defined, the CC50 is the concentration giving 50% cytotoxicity. In the data set with HIV-IIIb (setting [2]), `C[C@H]1CO[C@]23CCC[C@H]2n2cc(C(=O)NCc4c(F)cc(F)cc4F)c(=O)c(O)c2C(=O)N13` [Compound 70] had a pEC50 of 8.33. Half-maximal cytotoxicity in data set [1] (CC50 at 5 days) was put at 16.4 µM.
In the data set with HIV-IIIb (setting [2]), `C[C@@H]1CO[C@@]23CCOC[C@@H]2n2cc(C(=O)NCc4ccc(F)c(Cl)c4F)c(=O)c(O)c2C(=O)N13` [Compound 100] showed a pEC50 of 8.74. Further, the CC50 in the data set with MT4 cells (setting [3]) was 7.53 µM.
As for `O=C(NCc1ccc(F)c(Cl)c1F)c1cn2c(c(O)c1=O)C(=O)N1CCCC[C@]13COC[C@H]23` [Compound 42], the pEC50 in the data set with HIV-IIIb (setting [2]) was 8.46. In data set [1], this molecule came in with a CC50 at 5 days of 7.48 µM.
`C[C@@H]1CO[C@@]23CCOC[C@@H]2n2cc(C(=O)NCc4ccc(F)c(Cl)c4F)c(=O)c(O)c2C(=O)N13` [Compound 94] showed a pEC50 in the data set with HIV-IIIb of 8.73. In data set [1], this molecule displayed a CC50 at 5 days of 3.99 µM.
On to `C[C@@H]1CN2C(=O)c3c(O)c(=O)c(C(=O)NCc4ccc(F)c(Cl)c4F)cn3[C@@H]3CCC[C@@]32O1` (single isomer, unassigned) [Compound 74], for which, in the data set with HIV-IIIb (setting [2]), the pEC50 was 8.50. Also, the CC50 at 5 days in data set [1] amounted to 5.77 µM.
In turn, `O=C(NCc1ccc(F)c(Cl)c1F)c1cn2c(c(O)c1=O)C(=O)N1CCCC[C@]13COCC[C@H]23` [Compound 26] gave a pEC50 in the data set with HIV-IIIb of 8.58. In addition, in the data set on MT4 cells, the CC50 was determined as 22.1 µM.
`O=C(NCc1ccc(F)c(Cl)c1F)c1cn2c(c(O)c1=O)C(=O)N1CCCC[C@]13CCOC[C@H]23` [Compound 15]: the pEC50 with HIV-IIIb was 8.33. The molecule also returned a CC50 in the data set with MT4 cells of 7.52 µM.
The molecule `C[C@@H]1CCO[C@@]23CCC[C@@H]2n2cc(C(=O)NCc4ccc(F)c(Cl)c4F)c(=O)c(O)c2C(=O)N13` [Compound 77] showed a pEC50 with HIV-IIIb (setting [2]) of 8.15. In data set [1], half-maximal cytotoxicity (CC50 at 5 days) was put at 7.27 µM.
The matching figures for `O=C(NCc1ccc(F)c(Cl)c1F)c1cn2c(c(O)c1=O)C(=O)N1CCO[C@]13CCCC[C@H]23` (racemic) [Compound 96]: 8.35 and 1.37 µM.
`O=C(NCc1ccc(F)c(Cl)c1F)c1cn2c(c(O)c1=O)C(=O)N1CC=CC[C@]13COC[C@H]23` [Compound 41] showed a negative-log EC50 (pEC50) in the data set with HIV-IIIb (setting [2]) of 8.62. The molecule also returned a 50% cytotoxic concentration (CC50) at 5 days in data set [1] of 9.19 µM.
For the molecule `O=C(NCc1ccc(F)c(Cl)c1F)c1cn2c(c(O)c1=O)C(=O)N1CC=CC[C@]13CCOC[C@H]23` [Compound 14], in the data set on HIV-IIIb (setting [2]), the pEC50 was 8.34. In the data set with MT4 cells (setting [3]), the CC50 is 8.02 µM.
Turning to `C[C@@H]1CO[C@@]23CCC[C@@H]2n2cc(C(=O)NCc4c(F)cc(F)cc4F)c(=O)c(O)c2C(=O)N13` [Compound 66], the pEC50 in the data set with HIV-IIIb (setting [2]) is 8.60. The molecule further returned a CC50 at 5 days in data set [1] of 6.92 µM.
Consider `C[C@H]1CCO[C@]23CCC[C@H]2n2cc(C(=O)NCc4ccc(F)c(Cl)c4F)c(=O)c(O)c2C(=O)N13` [Compound 80], for which the pEC50 in the data set on HIV-IIIb (setting [2]) was 7.93. Besides, the CC50 with MT4 cells (setting [3]) was determined as 17.5 µM.
`O=C(NCc1c(F)cc(F)cc1F)c1cn2c(c(O)c1=O)C(=O)N1CC=CC[C@]13COCC[C@H]23` [Compound 30] showed a pEC50 with HIV-IIIb (setting [2]) of 8.59. Also, in data set [1], the cytotoxic concentration (CC50) at 5 days stood at 33.1 µM.
As to `C[C@@H]1CO[C@@]23CCC[C@@H]2n2cc(C(=O)NCc4ccc(F)c(Cl)c4F)c(=O)c(O)c2C(=O)N13` [Compound 65], the pEC50 in the data set with HIV-IIIb (setting [2]) is 8.38. In data set [1], this molecule registered a CC50 at 5 days of 5.53 µM.
In the data set on HIV-IIIb (setting [2]), `C[C@H]1CO[C@]23CCC[C@H]2n2cc(C(=O)NCc4ccc(F)c(Cl)c4F)c(=O)c(O)c2C(=O)N13` [Compound 69] showed a pEC50 of 8.10. The molecule further returned a CC50 at 5 days in data set [1] of 15.6 µM.
`C[C@@H]1CN2C(=O)c3c(O)c(=O)c(C(=O)NCc4ccc(F)c(Cl)c4F)cn3[C@H]3CCC[C@]32O1` [Compound 73] gave a pEC50 with HIV-IIIb of 8.42. The molecule further displayed a CC50 with MT4 cells of 3.32 µM.
The molecule `O=C(NCc1ccc(F)c(Cl)c1F)c1cn2c(c(O)c1=O)C(=O)N1CCS[C@]13COCC[C@H]23` (racemic) [Compound 103] had a pEC50 in the data set with HIV-IIIb (setting [2]) of 8.92. Also, the CC50 in the data set on MT4 cells (setting [3]) was 10.8 µM.
As for `O=C(NCc1ccc(F)c(Cl)c1F)c1cn2c(c(O)c1=O)C(=O)N1CC=CC[C@]13COCC[C@H]23` [Compound 25], the pEC50 with HIV-IIIb was 8.62. In the data set on MT4 cells (setting [3]), the CC50 came to 22.1 µM.
Turning to `O=C(NCc1c(F)cc(F)cc1F)c1cn2c(c(O)c1=O)C(=O)N1CCCC[C@]13COCC[C@H]23` [Compound 31], the pEC50 with HIV-IIIb (setting [2]) is 8.71. In the data set on MT4 cells (setting [3]), the CC50 stood at 33.6 µM.
